The values that follow come from US3995062A, “Halocyclopropyl halomethyl ethers” (priority 1975, dated 1976).

The subject of this data set is Mice. As to the kind of experiment: Standard test for evaluation of inhalation anesthetics (mice in rotating drum; AC50, LC50, anesthetic index). It is filed as in vivo. Conditions: 10 minutes exposure; for Anesthetic index AI (LC50/AC50): calculated from LC50 and AC50; for AC50 (minimum concentration required to anesthetize 50% of the mice) / LC50 (minimum concentration required to kill 50% of the mice): when two figures are given, the actual parameter lies between them. As to the method:
Mice were exposed to the anesthetic for a period of 10 minutes in a rotating drum. Observations were then made of the pinch reflex, the corneal reflex and the return of the righting reflex. At least four graded doses were employed to determine the minimum concentration required to anesthetize 50% of the mice used (AC50) and the minimum concentration required to kill 50% of the mice (LC50). The anesthetic index (AI) was then calculated from these minimum concentrations.

Bounds are passed on as bounds.

Take `FC(F)OC1(F)C(F)(F)C1(F)Cl` (stereo not drawn) [Example 7, 1-chloro-2-difluoromethoxy-1,2,3,3-tetrafluorocyclopropane]: the “Anesthetic index AI (LC50/AC50)” value is recorded as above 1, the “AC50 (minimum concentration required to anesthetize 50% of the mice)” value is given as 2-10 % volume and the “LC50 (minimum concentration required to kill 50% of the mice)” value was above 10 % volume.
The matching figures for `FC(Cl)OC1(F)C(F)(F)C1(F)Cl` (stereo not drawn) [Example 8, 1-chloro-2-chlorofluoromethoxy-1,2,3,3-tetrafluorocyclopropane]: 4-5, 2 % volume and 8-10 % volume.
Consider `FC(F)OC1(F)C(F)(F)C1(F)Br` (stereo not drawn) [Example 9, 1-bromo-2-difluoromethoxy-1,2,3,3-tetrafluorocyclopropane], for which the “Anesthetic index AI (LC50/AC50)” value was above 4, the “AC50 (minimum concentration required to anesthetize 50% of the mice)” value worked out at 1 % volume and the “LC50 (minimum concentration required to kill 50% of the mice)” value is above 4 % volume.
The matching figures for `FC(Cl)OC1(F)C(F)(F)C1(F)Br` (stereo not drawn) [Example 10, 1-bromo-2-chlorofluoromethoxy-1,2,3,3-tetrafluorocyclopropane]: ~ 2, 2-4 % volume and 6-8 % volume.
